Holding throughout (assay type): in vivo
The subject of data set [1] is Scirpus juncoides. The data set can be described thus: Test Example 1: herbicidal activity, application before weed generation in submerged conditions (symbol B). The following applies: application herbicide amount 320 g/ha. In a few lines: (§1)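 Compound emulsion was diluted to a set herbicide amount and applied to the water surface on the sowing day, into submerged (4 cm) alluvial-soil pots sown with mixed weed seeds and transplanted 2.5-leaf rice. Pots were held in a 25–30 °C greenhouse, and weeds were scored 0–5 by herbicidal ratio after 3 weeks.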

In data set [2] the test system is Monochoria vaginalis. The data set can be described thus: Test Example 1: herbicidal activity, application before weed generation in submerged conditions (symbol C). The following applies: application herbicide amount 320 g/ha. In a few lines: as §1
Data set [3] has as its system Leptochloa chinensis. The data set can be described thus: Test Example 3: herbicidal effect by foliage application, Wagner pot (symbol D). The settings on record: application herbicide amount 320 g/ha. In a few lines: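 Foliar spray of a water-diluted emulsion at a predetermined herbicide amount, applied to 14-day-old plants. Seedlings were raised in flooded alluvial soil (0.1–0.5 cm water) at 25–30 °C in a greenhouse. Injury was rated after 3 weeks against fixed criteria.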

In data set [4] the test system is Setaria viridis. Put plainly: Test Example 4: herbicidal effect by soil treatment (symbol G). The following applies: application herbicide amount 320 g/ha. In a few lines:
(§2)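 Seeds were sown in sterilized diluvial soil, covered with about 1.5 cm of soil, and the soil surface was sprayed with a water-diluted emulsion of the compound at a predetermined rate. Plants grew in a greenhouse at 25° C. to 30° C.; effects were scored visually 3 weeks after application.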

Data set [5] has as its system Echinochloa crus-galli var. crus-galli. The data set can be described thus: Test Example 4: herbicidal effect by soil treatment (symbol H). The settings on record: application herbicide amount 320 g/ha. In a few lines:
as §2

Data set [6] deals with Lolium multiflorum Lam. Put plainly: Test Example 4: herbicidal effect by soil treatment (symbol K). The following applies: application herbicide amount 320 g/ha. In a few lines: as §2
Data set [7] concerns Apera spica-venti. Put plainly: Test Example 4: herbicidal effect by soil treatment (symbol L). The settings on record: application herbicide amount 320 g/ha. In a few lines: as §2
The test system of data set [8] is Amaranthus retroflexus. The data set can be described thus: Test Example 4: herbicidal effect by soil treatment (symbol N). The following applies: application herbicide amount 320 g/ha. In a few lines: as §2
Data set [9] deals with corn. Put plainly: Test Example 4: effect on crop by soil treatment (symbol c). The following applies: application herbicide amount 320 g/ha. In short, it runs like this: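 The test used sterilized diluvial soil. Seed was set down in spots and overlaid with about 1.5 cm of soil before growth in a greenhouse kept at 25° C. to 30° C.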
Data set [10] concerns rapeseed. Put plainly: Test Example 4: effect on crop by soil treatment (symbol g). The following applies: application herbicide amount 320 g/ha. In a few lines: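 Crop seeds, among them rice, wheat, beet and rapeseed, were sown in sterilized diluvial soil and covered with about 1.5 cm of soil. Boxes were kept in a greenhouse at 25° C. to 30° C. for plant growth.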
The test system of data set [11] is Setaria viridis. The data set can be described thus: Test Example 5: herbicidal effect by foliage application, plastic box (symbol G). The following applies: 320 g/ha, 3 weeks after application. In a few lines: (§3)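 Sowing in sterilized diluvial soil, 14 days' greenhouse growth at 25° C. to 30° C., then uniform small-sprayer foliar application of aqueous emulsion dilution; plants scored three weeks afterwards.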

Data set [12] deals with Echinochloa crus-galli var. crus-galli. The data set can be described thus: Test Example 5: herbicidal effect by foliage application, plastic box (symbol H). The following applies: 320 g/ha, 3 weeks after application. In a few lines:
as §3

In data set [13] the test system is Alopecurus myosuroides. Put plainly: Test Example 5: herbicidal effect by foliage application, plastic box (symbol J). The following applies: 320 g/ha, 3 weeks after application. In a few lines:
as §3

For data set [14], the system named is Stellaria media. The data set can be described thus: Test Example 5: herbicidal effect by foliage application, plastic box (symbol P). The settings on record: 320 g/ha, 3 weeks after application. In a few lines: as §3
In data set [15] the test system is wheat. Put plainly: Test Example 5: effect on crop by foliage application, plastic box (symbol e). The settings on record: 320 g/ha, 3 weeks after application. In short, it runs like this:
(§4)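 Greenhouse test at 25° C. to 30° C. Seeds of crops and weeds were spot-sown in boxes of sterilized diluvial soil under roughly 1.5 cm soil cover, then grown for foliage treatment.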

In data set [16] the test system is rapeseed. The data set can be described thus: Test Example 5: effect on crop by foliage application, plastic box (symbol g). The settings on record: 320 g/ha, 3 weeks after application. In short, it runs like this:
as §4

For data set [17], the system named is Stellaria media. Put plainly: Test Example 4: herbicidal effect by soil treatment (symbol P). The following applies: application herbicide amount 320 g/ha. In short, it runs like this:
as §2

For the compound `CON=C(C)CC1CC(OC(=O)C(C)(C)F)=C(c2c(C)cc(C)cc2C)C1=O` (stereo not drawn) [1-039], the “Herbicidal effect grade, B: Scirpus juncoides” value (shortened to “Herbicidal effect grade, B”) in data set [1] was 5 (Herbicidal ratio of 90% or more (almost completely withered)). The “Herbicidal effect grade, C: Monochoria vaginalis” value (from here on “Herbicidal effect grade, C”) in data set [2] was 2 (Herbicidal ratio of 20% or higher and lower than 40%). Moreover, the “herbicidal effect on D (Leptochloa chinensis), grade 0-5” value (shortened to “herbicidal effect on D”) in [3] is reported as 5 (Herbicidal ratio of 90% or more (almost completely withered)). Moreover, in data set [4], the “G (Setaria viridis) herbicidal effect grade” value is recorded as 5 (Herbicidal ratio of 90% or more (almost completely withered)). Further, the “H (Echinochloa crus-galli var. crus-galli) herbicidal effect grade” value in data set [5] is 5 (Herbicidal ratio of 90% or more (almost completely withered)). Also, the “K (Lolium multiflorum Lam.) herbicidal effect grade” value in data set [6] is given as 5 (Herbicidal ratio of 90% or more (almost completely withered)). Further, the “L (Apera spica-venti) herbicidal effect grade” value in data set [7] was 5 (Herbicidal ratio of 90% or more (almost completely withered)). Further, the “N (Amaranthus retroflexus) herbicidal effect grade” value in data set [8] is listed as 5 (Herbicidal ratio of 90% or more (almost completely withered)). Further, the “c (corn) effect on crop grade” value in data set [9] is 4 (Herbicidal ratio of 70% or higher and lower than 90%). The “g (rapeseed) effect on crop grade” value in [10] was 4 (Herbicidal ratio of 70% or higher and lower than 90%). The “G: Setaria viridis, herbicidal effect grade” value in data set [11] is reported as 5 (Herbicidal ratio of 90% or more (almost completely withered)). For the same compound, in [12], the “H: Echinochloa crus-galli var. crus-galli, herbicidal effect grade” value was 5 (Herbicidal ratio of 90% or more (almost completely withered)). In data set [13], the “J: Alopecurus myosuroides, herbicidal effect grade” value was 5 (Herbicidal ratio of 90% or more (almost completely withered)). In addition, the “P: Stellaria media, herbicidal effect grade” value in [14] was 3 (Herbicidal ratio of 40% or higher and lower than 70%). Moreover, the “e: wheat, effect on crop grade” value in data set [15] is given as 5 (Herbicidal ratio of 90% or more (almost completely withered)). Moreover, in data set [16], the “g: rapeseed, effect on crop grade” value is 4 (Herbicidal ratio of 70% or higher and lower than 90%).
In the case of `CON=C(CC1CC(OC(=O)COc2ccccc2)=C(c2c(C)cc(C)cc2C)C1=O)C1CC1` (stereo not drawn) [1-063], the “Herbicidal effect grade, B” value in [1] is 3 (Herbicidal ratio of 40% or higher and lower than 70%). Further, the “Herbicidal effect grade, C” value in data set [2] is given as 0 (Herbicidal ratio of 5% or lower (almost no effect)). The “herbicidal effect on D” value in data set [3] is reported as 5 (Herbicidal ratio of 90% or more (almost completely withered)). The “G (Setaria viridis) herbicidal effect grade” value in data set [4] is 5 (Herbicidal ratio of 90% or more (almost completely withered)). Further, in [5], the “H (Echinochloa crus-galli var. crus-galli) herbicidal effect grade” value is listed as 5 (Herbicidal ratio of 90% or more (almost completely withered)). The “K (Lolium multiflorum Lam.) herbicidal effect grade” value in [6] is 5 (Herbicidal ratio of 90% or more (almost completely withered)). Further, in [7], the “L (Apera spica-venti) herbicidal effect grade” value was 5 (Herbicidal ratio of 90% or more (almost completely withered)). The “N (Amaranthus retroflexus) herbicidal effect grade” value in [8] is recorded as 0 (Herbicidal ratio of 5% or lower (almost no effect)). Also, in data set [9], the “c (corn) effect on crop grade” value is 4 (Herbicidal ratio of 70% or higher and lower than 90%). Besides, in data set [10], the “g (rapeseed) effect on crop grade” value is on record as 0 (Herbicidal ratio of 5% or lower (almost no effect)). Besides, in data set [11], the “G: Setaria viridis, herbicidal effect grade” value is 5 (Herbicidal ratio of 90% or more (almost completely withered)). For the same compound, the “H: Echinochloa crus-galli var. crus-galli, herbicidal effect grade” value in data set [12] was 5 (Herbicidal ratio of 90% or more (almost completely withered)). In data set [13], the “J: Alopecurus myosuroides, herbicidal effect grade” value is 5 (Herbicidal ratio of 90% or more (almost completely withered)). In data set [14], the “P: Stellaria media, herbicidal effect grade” value is 0 (Herbicidal ratio of 5% or lower (almost no effect)). For the same compound, the “e: wheat, effect on crop grade” value in data set [15] was 4 (Herbicidal ratio of 70% or higher and lower than 90%). Besides, in data set [16], the “g: rapeseed, effect on crop grade” value is 4 (Herbicidal ratio of 70% or higher and lower than 90%).
Regarding `CON=C(C)CC1CC(OC(=O)COc2ccc(F)cc2)=C(c2c(C)cc(C)cc2C)C1=O` (stereo not drawn) [1-073], in data set [1], the “Herbicidal effect grade, B” value was 5 (Herbicidal ratio of 90% or more (almost completely withered)). For the same compound, the “Herbicidal effect grade, C” value in data set [2] is 1 (Herbicidal ratio of 5% or higher and lower than 20%). Also, the “herbicidal effect on D” value in data set [3] is reported as 5 (Herbicidal ratio of 90% or more (almost completely withered)). For the same compound, in data set [4], the “G (Setaria viridis) herbicidal effect grade” value is 5 (Herbicidal ratio of 90% or more (almost completely withered)). Further, in [5], the “H (Echinochloa crus-galli var. crus-galli) herbicidal effect grade” value is recorded as 5 (Herbicidal ratio of 90% or more (almost completely withered)). For the same compound, in data set [6], the “K (Lolium multiflorum Lam.) herbicidal effect grade” value is 5 (Herbicidal ratio of 90% or more (almost completely withered)). Besides, the “L (Apera spica-venti) herbicidal effect grade” value in [7] is 5 (Herbicidal ratio of 90% or more (almost completely withered)). Also, in data set [8], the “N (Amaranthus retroflexus) herbicidal effect grade” value is given as 5 (Herbicidal ratio of 90% or more (almost completely withered)). For the same compound, the “c (corn) effect on crop grade” value in data set [9] was 4 (Herbicidal ratio of 70% or higher and lower than 90%). Moreover, the “g (rapeseed) effect on crop grade” value in [10] was 4 (Herbicidal ratio of 70% or higher and lower than 90%). Further, the “G: Setaria viridis, herbicidal effect (criteria 0-5)” value in [11] is reported as 5 (Herbicidal ratio of 90% or more (almost completely withered)). The “H: Echinochloa crus-galli var. crus-galli, herbicidal effect (criteria 0-5)” value in data set [12] was 5 (Herbicidal ratio of 90% or more (almost completely withered)). Also, the “J: Alopecurus myosuroides, herbicidal effect (criteria 0-5)” value in data set [13] is 5 (Herbicidal ratio of 90% or more (almost completely withered)). Further, the “P: Stellaria media, herbicidal effect (criteria 0-5)” value in data set [14] was 2 (Herbicidal ratio of 20% or higher and lower than 40%). The “e: wheat, effect on crop (criteria 0-5)” value in [15] is listed as 5 (Herbicidal ratio of 90% or more (almost completely withered)). For the same compound, the “g: rapeseed, effect on crop (criteria 0-5)” value in data set [16] is 4 (Herbicidal ratio of 70% or higher and lower than 90%).
As for `CC(=O)CC1CC(O)=C(c2c(C)cc(-c3ccc(OC(F)(F)F)cc3)cc2C)C1=O` (stereo not drawn) [7-016], the “herbicidal effect on D” value in [3] is given as 5 (Herbicidal ratio of 90% or more (almost completely withered)). In [4], the “Herbicidal effect grade, G: Setaria viridis” value was 2 (Herbicidal ratio of 20% or higher and lower than 40%). Besides, the “Herbicidal effect grade, H: Echinochloa crus-galli var. crus-galli” value in data set [5] was 2 (Herbicidal ratio of 20% or higher and lower than 40%). For the same compound, in data set [6], the “Herbicidal effect grade, K: Lolium multiflorum Lam.” value is given as 0 (Herbicidal ratio of 5% or lower (almost no effect)). Moreover, the “Herbicidal effect grade, L: Apera spica-venti” value in data set [7] was 0 (Herbicidal ratio of 5% or lower (almost no effect)). For the same compound, the “Herbicidal effect grade, N: Amaranthus retroflexus” value in data set [8] is 0 (Herbicidal ratio of 5% or lower (almost no effect)). For the same compound, in data set [17], the “Herbicidal effect grade, P: Stellaria media” value is given as 0 (Herbicidal ratio of 5% or lower (almost no effect)). For the same compound, the “Effect on crop grade, c: corn” value in data set [9] is on record as 0 (Herbicidal ratio of 5% or lower (almost no effect)). For the same compound, the “Effect on crop grade, g: rapeseed” value in [10] is given as 0 (Herbicidal ratio of 5% or lower (almost no effect)). For the same compound, the “G: Setaria viridis, herbicidal effect (criteria of Test Example 1)” value in [11] is 1 (Herbicidal ratio of 5% or higher and lower than 20%). In data set [12], the “H: Echinochloa crus-galli var. crus-galli, herbicidal effect (criteria of Test Example 1)” value is 1 (Herbicidal ratio of 5% or higher and lower than 20%). In addition, the “J: Alopecurus myosuroides, herbicidal effect (criteria of Test Example 1)” value in data set [13] is 0 (Herbicidal ratio of 5% or lower (almost no effect)). The “P: Stellaria media, herbicidal effect (criteria of Test Example 1)” value in data set [14] was 0 (Herbicidal ratio of 5% or lower (almost no effect)). Moreover, the “e: wheat, effect on crop (criteria of Test Example 1)” value in data set [15] is reported as 0 (Herbicidal ratio of 5% or lower (almost no effect)). Further, in data set [16], the “g: rapeseed, effect on crop (criteria of Test Example 1)” value is recorded as 0 (Herbicidal ratio of 5% or lower (almost no effect)).
